Experimental data as given in patent US10392404B2, “Compounds and compositions as kinase inhibitors” (NOVARTIS AG, priority 2014, dated 2019).

Key:
C-RAF = target: T1, C-RAF (Homo sapiens, UniProt P04049, Y340E/Y341E); experiment: In vitro Raf activity determination (Alpha Screen, biotinylated kinase-dead MEK1 substrate), C-Raf; type: biochemical; settings: c-Raf approximately 4 nM; ATP 1 μM; pre-incubation 60 minutes; reaction 1 hour at room temperature
T1 construct: His tag (implied by nickel chromatography) (cleaved yes); StrepII tag (cleaved yes); made in house; host or cells: Sf9 insect cells (baculovirus), CRAF and h14-3-3 zeta co-expressed; MEK1 substrate from E. coli
T1 sequence (P04049 whole entry Y340E/Y341E): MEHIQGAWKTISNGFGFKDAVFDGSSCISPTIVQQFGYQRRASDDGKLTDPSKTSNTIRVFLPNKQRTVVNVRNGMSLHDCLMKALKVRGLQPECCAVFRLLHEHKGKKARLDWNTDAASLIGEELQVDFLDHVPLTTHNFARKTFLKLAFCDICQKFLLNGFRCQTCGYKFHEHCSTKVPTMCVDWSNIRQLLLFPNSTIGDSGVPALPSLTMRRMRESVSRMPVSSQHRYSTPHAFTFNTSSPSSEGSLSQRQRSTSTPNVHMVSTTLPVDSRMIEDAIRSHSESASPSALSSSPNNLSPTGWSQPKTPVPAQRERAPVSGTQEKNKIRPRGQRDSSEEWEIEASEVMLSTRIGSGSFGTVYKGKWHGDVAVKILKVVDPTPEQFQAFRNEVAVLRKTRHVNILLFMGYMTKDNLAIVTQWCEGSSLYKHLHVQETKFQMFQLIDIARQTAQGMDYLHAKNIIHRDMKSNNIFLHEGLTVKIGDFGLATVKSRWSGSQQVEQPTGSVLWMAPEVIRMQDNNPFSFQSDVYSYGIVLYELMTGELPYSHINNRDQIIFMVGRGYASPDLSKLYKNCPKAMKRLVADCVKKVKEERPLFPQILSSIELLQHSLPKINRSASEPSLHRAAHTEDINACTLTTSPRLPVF
T1 sequence (P63104 whole entry partner): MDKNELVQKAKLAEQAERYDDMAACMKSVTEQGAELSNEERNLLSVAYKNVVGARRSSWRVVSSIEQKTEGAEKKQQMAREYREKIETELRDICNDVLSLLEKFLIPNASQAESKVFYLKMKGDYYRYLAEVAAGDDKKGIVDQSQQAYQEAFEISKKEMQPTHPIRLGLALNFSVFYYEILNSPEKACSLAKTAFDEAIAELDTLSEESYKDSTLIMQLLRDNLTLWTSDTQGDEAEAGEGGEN
Summary of the method: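 AlphaScreen read-out of MEK phosphorylation using an anti-phospho-MEK1/2 antibody after a 1 hour room-temperature reaction at 1 μM ATP. Enzyme: approximately 4 nM Sf9-expressed full-length activated C-Raf (Y340E/Y341E, with 14-3-3ζ) on approximately 10 nM biotinylated K97R MEK1, after 60 min compound preincubation. IC50 by non-linear fit.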

b-Raf (V600E) = target: T2, b-Raf (V600E) (Homo sapiens, UniProt P15056, V600E); experiment: In vitro Raf activity determination (Alpha Screen, biotinylated kinase-dead MEK1 substrate), B-Raf; type: biochemical; settings: b-Raf (V600E) approximately 4 pM; ATP 10 μM; pre-incubation 60 minutes; reaction 3 hours at room temperature
T2 construct: made in house
T2 sequence (P15056 whole entry V600E): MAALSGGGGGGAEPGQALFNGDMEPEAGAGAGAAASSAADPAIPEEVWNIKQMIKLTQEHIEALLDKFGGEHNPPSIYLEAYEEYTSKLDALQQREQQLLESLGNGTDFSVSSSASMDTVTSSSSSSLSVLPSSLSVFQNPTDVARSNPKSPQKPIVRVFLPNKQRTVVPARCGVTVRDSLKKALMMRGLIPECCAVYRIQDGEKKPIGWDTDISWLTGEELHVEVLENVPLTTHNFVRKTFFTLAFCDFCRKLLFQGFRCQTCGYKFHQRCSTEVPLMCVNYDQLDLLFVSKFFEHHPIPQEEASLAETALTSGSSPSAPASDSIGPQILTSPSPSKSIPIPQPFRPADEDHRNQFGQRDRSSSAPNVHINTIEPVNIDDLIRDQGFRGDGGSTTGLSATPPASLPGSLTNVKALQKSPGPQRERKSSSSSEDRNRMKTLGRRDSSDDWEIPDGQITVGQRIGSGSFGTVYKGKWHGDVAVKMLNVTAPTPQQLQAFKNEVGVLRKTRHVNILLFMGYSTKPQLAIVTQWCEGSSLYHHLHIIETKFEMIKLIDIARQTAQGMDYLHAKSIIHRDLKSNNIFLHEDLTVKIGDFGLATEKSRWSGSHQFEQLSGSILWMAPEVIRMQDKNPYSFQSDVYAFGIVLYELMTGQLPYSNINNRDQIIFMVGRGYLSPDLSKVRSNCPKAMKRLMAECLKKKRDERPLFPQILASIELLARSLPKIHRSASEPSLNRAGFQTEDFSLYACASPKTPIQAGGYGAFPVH
Summary of the method: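 IC50 from non-linear regression of AlphaScreen phospho-MEK signal (anti-p-MEK1/2 antibody). b-Raf(V600E), about 4 pM, phosphorylated ~10 nM biotinylated K97R MEK1 with 10 μM ATP for 3 h at room temperature after 60 min compound pre-incubation; buffer pH 7.5 Tris, 15 mM MgCl2, 1 mM DTT.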

| Structure (SMILES) | IC50 (C-RAF) | IC50 (b-Raf (V600E)) |
| --- | --- | --- |
| CCn1cc(C(=O)Nc2ccc(C)c(-c3cnc(N4CCNCC4)c(C#N)c3)c2)cc(C(F)(F)F)c1=O [Example 162, N-(3-(5-cyano-6-(piperazin-1-yl)pyridin-3-yl)-4-methylphenyl)-1-ethyl-6-oxo-5-(trifluoromethyl)-1,6-dihydropyridine-3-carboxamide] | 0.522 nM | 2.48 nM |
| Cc1ccc(NC(=O)c2cccc(C(F)F)c2)cc1-c1cnc(N2CCNCC2)c(C#N)c1 [Example 163, N-(3-(5-cyano-6-(piperazin-1-yl)pyridin-3-yl)-4-methylphenyl)-3-(difluoromethyl) benzamide] | 0.125 nM | 0.901 nM |
| Cc1ccc(NC(=O)c2ccnc(C(C)(C)F)c2)cc1-c1cnc(N2CCNCC2)c(C#N)c1 [Example 164, N-(3-(5-cyano-6-(piperazin-1-yl)pyridin-3-yl)-4-methylphenyl)-2-(2-fluoropropan-2-yl)isonicotinamide] | 0.222 nM | 0.683 nM |
| Cc1ccc(NC(=O)c2ccnc(C(C)(C)O)c2)cc1-c1cnc(N2CCOCC2)c(C#N)c1 [Example 165, N-(3-(5-cyano-6-morpholinopyridin-3-yl)-4-methylphenyl)-2-(2-hydroxypropan-2-yl)isonicotinamide] | 0.356 nM | 1.24 nM |
| Cc1ncc(NC(=O)c2ccnc(C(C)(C)O)c2)cc1-c1cnc(N2CCOCC2)c(C#N)c1 [Example 166, N-(5′-cyano-2-methyl-6′-morpholino-[3,3′-bipyridin]-5-yl)-2-(2-hydroxypropan-2-yl)isonicotinamide] | 1.59 nM | 6.91 nM |
| Cc1ncc(NC(=O)c2ccnc(C(C)(C)O)c2)cc1-c1cnc(C2CCOCC2)c(C#N)c1 [Example 167, N-(5′-cyano-2-methyl-6′-(tetrahydro-2H-pyran-4-yl)-[3,3′-bipyridin]-5-yl)-2-(2-hydroxypropan-2-yl)isonicotinamide] | 6.86 nM | 33 nM |
| Cc1ccc(NC(=O)c2ccnc(C(C)(C)O)c2)cc1-c1cnc(NC2CCOCC2)c(C#N)c1 [Example 168, N-(3-(5-cyano-6-((tetrahydro-2H-pyran-4-yl)amino)pyridin-3-yl)-4-methylphenyl)-2-(2-hydroxypropan-2-yl)isonicotinamide] | 0.487 nM | 1.44 nM |
| Cc1ccc(NC(=O)c2ccnc(C(F)F)c2)cc1-c1cnc(NC2CCOCC2)c(C#N)c1 [Example 169, N-(3-(5-cyano-6-((tetrahydro-2H-pyran-4-yl)amino)pyridin-3-yl)-4-methylphenyl)-2-(difluoromethyl) isonicotinamide] | 0.154 nM | 0.507 nM |
| Cc1ncc(NC(=O)c2ccnc(C(C)(C)O)c2)cc1-c1cnc(NC2CCOCC2)c(C#N)c1 [Example 170, N-(5′-cyano-2-methyl-6′-((tetrahydro-2H-pyran-4-yl)amino)-[3,3′-bipyridin]-5-yl)-2-(2-hydroxypropan-2-yl)isonicotinamide] | 3.16 nM | 12.1 nM |
| Cc1ncc(NC(=O)c2ccnc(C(F)F)c2)cc1-c1cnc(NC2CCOCC2)c(C#N)c1 [Example 171, N-(5′-cyano-2-methyl-6′-((tetrahydro-2H-pyran-4-yl)amino)-[3,3′-bipyridin]-5-yl)-2-(difluoromethyl) isonicotinamide] | 0.925 nM | 4.18 nM |
| Cc1ncc(NC(=O)c2cccc(C(F)F)c2)cc1-c1cnc(NC2CCOCC2)c(C#N)c1 [Example 172, N-(5′-cyano-2-methyl-6′-((tetrahydro-2H-pyran-4-yl)amino)-[3,3′-bipyridin]-5-yl)-3-(difluoromethyl) benzamide] | 0.356 nM | 1.09 nM |
| Cc1ncc(NC(=O)c2ccnc(C(F)(F)F)c2)cc1-c1cnc(NC2CCOCC2)c(C#N)c1 [Example 173, N-(5′-cyano-2-methyl-6′-((tetrahydro-2H-pyran-4-yl)amino)-[3,3′-bipyridin]-5-yl)-2-(trifluoromethyl) isonicotinamide] | 0.478 nM | 1.63 nM |
| Cc1ccc(NC(=O)c2cnnc(C(F)(F)F)c2)cc1-c1cnc(NC2CCOCC2)c(C#N)c1 [Example 174, N-(3-(5-cyano-6-((tetrahydro-2H-pyran-4-yl)amino)pyridin-3-yl)-4-methylphenyl)-6-(trifluoromethyl) pyridazine-4-carboxamide] | 0.177 nM | 0.576 nM |
| Cc1ncc(NC(=O)c2cnnc(C(F)(F)F)c2)cc1-c1cnc(NC2CCOCC2)c(C#N)c1 [Example 175, N-(5′-cyano-2-methyl-6′-((tetrahydro-2H-pyran-4-yl)amino)-[3,3′-bipyridin]-5-yl)-6-(trifluoromethyl) pyridazine-4-carboxamide] | 1.25 nM | 4.74 nM |
| COCCNc1ncc(-c2cc(NC(=O)c3ccnc(C(C)(C)C#N)c3)ccc2C)cc1C#N [Example 176, N-(3-(5-cyano-6-((2-methoxyethyl)amino)pyridin-3-yl)-4-methylphenyl)-2-(2-cyanopropan-2-yl)isonicotinamide] | 0.398 nM | 1.58 nM |
| COCCNc1ncc(-c2cc(NC(=O)c3ccnc(C4(C#N)CC4)c3)ccc2C)cc1C#N [Example 177, N-(3-(5-cyano-6-((2-methoxyethyl)amino)pyridin-3-yl)-4-methylphenyl)-2-(1-cyanocyclopropyl) isonicotinamide] | 0.169 nM | 0.94 nM |
| COCCNc1ncc(-c2cc(NC(=O)c3ccnc(C(F)F)c3)ccc2C)cc1C#N [Example 178, N-(3-(5-cyano-6-((2-methoxyethyl)amino)pyridin-3-yl)-4-methylphenyl)-2-(difluoromethyl) isonicotinamide] | 0.192 nM | 1.51 nM |
| COCCNc1ncc(-c2cc(NC(=O)c3cnnc(C(F)(F)F)c3)ccc2C)cc1C#N [Example 179, N-(3-(5-cyano-6-((2-methoxyethyl)amino)pyridin-3-yl)-4-methylphenyl)-6-(trifluoromethyl) pyridazine-4-carboxamide] | 0.588 nM | 4.11 nM |
| Cc1ncc(NC(=O)c2ccnc(C(F)(F)F)c2)cc1-c1cnc(N2CC(C)(O)C2)c(C#N)c1 [Example 180, N-(5′-cyano-6′-(3-hydroxy-3-methylazetidin-1-yl)-2-methyl-[3,3′-bipyridin]-5-yl)-2-(trifluoromethyl) isonicotinamide] | 1.31 nM | 8.46 nM |
| Cc1ncc(NC(=O)c2cnnc(C(F)(F)F)c2)cc1-c1cnc(N2CC(C)(O)C2)c(C#N)c1 [Example 181, N-(5′-cyano-6′-(3-hydroxy-3-methylazetidin-1-yl)-2-methyl-[3,3′-bypyridin]-5-yl)-6-(trifluoromethyl) pyridazine-4-carboxamide] | 16.8 nM | 112 nM |
| Cc1ncc(NC(=O)c2ccnc(C(F)F)c2)cc1-c1cnc(N2CC(C)(O)C2)c(C#N)c1 [Example 182, N-(5′-cyano-6′-(3-hydroxy-3-methylazetidin-1-yl)-2-methyl-[3,3′-bipyridin]-5-yl)-2-(difluoromethyl) isonicotinamide] | 7.49 nM | 58.8 nM |
| Cc1ncc(NC(=O)c2ccnc(C(C)(F)F)c2)cc1-c1cnc(N2CC(C)(O)C2)c(C#N)c1 [Example 183, N-(5′-cyano-6′-(3-hydroxy-3-methylazetidin-1-yl)-2-methyl-[3,3′-bipyridin]-5-yl)-2-(1,1-difluoroethyl) isonicotinamide] | 0.824 nM | 5.79 nM |
| Cc1ncc(NC(=O)c2cccc(C(F)F)c2)cc1-c1cnc(N2CC(C)(O)C2)c(C#N)c1 [Example 184, N-(5′-cyano-6′-(3-hydroxy-3-methylazetidin-1-yl)-2-methyl-[3,3′-bipyridin]-5-yl)-3-(difluoromethyl) benzamide] | 1.14 nM | 7.88 nM |
| Cc1ncc(NC(=O)c2ccnc(C(C)(C)O)c2)cc1-c1cnc(N2CC(C)(O)C2)c(C#N)c1 [Example 185, N-(5′-cyano-6′-(3-hydroxy-3-methylazetidin-1-yl)-2-methyl-[3,3′-bipyridin]-5-yl)-2-(2-hydroxypropan-2-yl)isonicotinamide] | 11 nM | 61 nM |
| Cc1ncc(NC(=O)c2cnnc(C(C)(C)C#N)c2)cc1-c1cnc(N2CC(C)(O)C2)c(C#N)c1 [Example 186, N-(5′-cyano-6′-(3-hydroxy-3-methylazetidin-1-yl)-2-methyl-[3,3′-bipyridin]-5-yl)-6-(2-cyanopropan-2-yl)pyridazine-4-carboxamide] | 10.2 nM | 52.6 nM |
| Cc1ncc(NC(=O)c2cccc(S(C)(=O)=O)c2)cc1-c1cnc(N2CC(C)(O)C2)c(C#N)c1 [Example 187, N-(5′-cyano-6′-(3-hydroxy-3-methylazetidin-1-yl)-2-methyl-[3,3′-bipyridin]-5-yl)-3-(methylsulfonyl) benzamide] | 4.2 nM | 26.6 nM |
| Cc1ncc(NC(=O)c2ccnc(C3CC3)c2)cc1-c1cnc(N2CC(C)(O)C2)c(C#N)c1 [Example 188, N-(5′-cyano-6′-(3-hydroxy-3-methylazetidin-1-yl)-2-methyl-[3,3′-bipyridin]-5-yl)-2-cyclopropyl-isonicotinamide] | 1.76 nM | 9.92 nM |
| Cc1ncc(NC(=O)c2ccnc(C3(C#N)CC3)c2)cc1-c1cnc(N2CC(C)(O)C2)c(C#N)c1 [Example 189, N-(5′-cyano-6′-(3-hydroxy-3-methylazetidin-1-yl)-2-methyl-[3,3′-bipyridin]-5-yl)-2-(1-cyanocyclopropyl) isonicotinamide] | 0.39 nM | 3.41 nM |
